In PMC4465889 (Biochemical and biophysical research communications, 2014):

Columns and labels:
[1] = target: L192A mutant human CB2 receptor (Homo sapiens, UniProt P34972, L192A); type: binding
[2] = target: V113L mutant human CB2 receptor (Homo sapiens, UniProt P34972, V113L); type: binding
Chain of V113L mutant human CB2 receptor (P34972 whole entry V113L): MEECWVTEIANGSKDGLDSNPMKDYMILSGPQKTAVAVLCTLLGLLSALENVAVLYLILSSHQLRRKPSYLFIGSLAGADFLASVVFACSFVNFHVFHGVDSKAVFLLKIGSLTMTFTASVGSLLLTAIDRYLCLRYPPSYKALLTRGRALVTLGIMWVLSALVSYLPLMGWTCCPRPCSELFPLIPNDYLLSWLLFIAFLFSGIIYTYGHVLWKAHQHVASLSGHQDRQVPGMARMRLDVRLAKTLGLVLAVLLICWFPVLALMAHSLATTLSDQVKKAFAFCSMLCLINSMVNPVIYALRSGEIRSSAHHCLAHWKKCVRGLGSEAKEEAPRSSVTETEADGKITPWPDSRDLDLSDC

Chain of L192A mutant human CB2 receptor (P34972 whole entry L192A): as the sequence (P34972 whole entry V113L) above, with L113V, L192A counted along it

With SR144528 the “Reduction of binding compared to wild type” value ([1]; L192A mutant vs wild type CB2) was 5 fold, the “Effect of substitution on CB2 binding affinity compared to the wild-type” value ([1]; L192A mutant vs wild type CB2, in words) was “slightly reduced” and the “Reduction of binding compared to wild type” value ([2]; V113L mutant vs wild type CB2) was 6 fold. The “Effect of substitution on CB2 binding affinity compared to the wild-type” value ([2]; V113L mutant vs wild type CB2, in words) was “slight reduction”.
